A short description of series [1]: refractive index (Na D-line) (dimensionless). Conditions: 293.15 K; 101.33 kPa; Liquid; Standard Abbe refractometry.
For series [2] the following is noted: Liquid; for mass density: 293.15 K, 101.33 kPa, Vibrating tube method; for Normal boiling temperature: mercury-in-glass thermometers.

± gives the expanded uncertainty stated by the source.

Results on 3 compounds are retold here after the NIST ThermoML archive (doi:10.1021/je3012925).

As usually defined, the refractive index is a measure of how strongly the sample bends light. One may read the mass density as mass per unit of volume.

Take `CCC(C)CO` (centres undefined) [2-methyl-1-butanol]: the refractive index in series [1] is recorded as 1.4096 ± 0.0007. In series [2], the mass density was found to be 817.6 ± 0.2 kg/m3 and the Normal boiling temperature is 128.12 ± 0.2 °C.

For the compound `CCC(C)COC(C)=O` (centres undefined) [2-methylbutyl ethanoate], the refractive index in series [1] was 1.4034 ± 0.0007. Further, in series [2], the mass density was 873.5 ± 0.3 kg/m3 and the Normal boiling temperature worked out at 138.23 ± 0.2 °C.

In the case of `CN(C)C=O` [dimethylformamide], in series [1], the refractive index was 1.4328 ± 0.0007. For the same compound, in series [2], the mass density came out at 942.6 ± 0.3 kg/m3 and the Normal boiling temperature amounted to 153.06 ± 0.2 °C.
